# Experimental data reported in paper PMC8032764 (Scientific Reports, 2021).
# Where two headings read alike, the source gives them in different places.
# Key:
# [1] = system: T1, Bradykinin B2; assay: Cerep binding; set-up: species or system human; settings: 10 μM; [3H]bradykinin; hum. recomb. (CHO)
# T1 construct: purchased Eurofins Cerep
# [2] = system: NMDA (PCP); assay: Cerep binding; settings: 10 μM; [3H]TCP; rat cerebral cortex
# [3] = system: healthy male subjects; assay: Study BP25129 single-ascending dose, safety EEG; format: in vivo, human
# Description: CLINICAL INFORMATION: Safety EEG data from Phase I studies in healthy volunteers
# 1) Study BP25129 Single-Ascending Dose (SAD) in Healthy Volunteers
# Single doses of between 1.5 mg and 1250 mg were administered to groups of eight healthy male subjects (age range 18–44 years) per dose level (6 received active drug, two received placebo). All nine planned cohorts in the Part 1 SAD study were completed, and all subjects completed dosing as planned.
# Food Effect (FE) Cohort: Eight subjects were enrolled, all received active drug as planned on two separate occasions, with food condition (Fed or Fasted) on each occasion determined in a randomized manner. All subjects enrolled in the FE portion of Part 1 completed the study.
# EEG assessments were made in Cohorts 6, 8, 9 and FE Cohort only:
# • Cohort 6: 160 mg (n dosed: 6)
# • Cohort 8: 660 mg (n dosed: 6)
# • Cohort 9: 1250 mg (n dosed: 6)
# • Food effect Cohort: 660 mg ([…]) […]
# On the day of dosing, an EEG in the resting, awake state was recorded starting about 1 hour prior to dosing and ending approximately 7 h after dosing. EEG results were recorded either as normal, normal variant or abnormal variant. If an abnormal variant measurement was recorded, then the Investigator could continue recordings as appropriate until a return to […]
# participants had several EEGs and several participants had sleep assessments with EEG that were also evaluated: […]
# [4] = system: T2, Serotonin 5-HT3; assay: Cerep binding; set-up: species or system human; settings: 10 μM; [3H]BRL 43694; hum. recomb. (CHO)
# T2 construct: purchased Eurofins Cerep
# [5] = Pharmacokinetics, single oral dosing; format: in vivo; settings: plasma; for Tmax: read-out: Tmax (range)
# Description: Concentrations were chosen to achieve the desired doses by administering 5 mL/kg to rats and 2.5 mL/kg to NHPs via oral gavage.
# The calibration range was from 1.0 to 5000 ng/mL. After protein precipitation with ethanol, the sample solution was injected onto a Gemini C18 trapping column (2 × 10 mm; Phenomenex, Torrance, CA, USA) and polar endogenous compounds and salts were rinsed off. Analytical separation was performed on an Atlantis T3 column (2.1 × 50 mm) (Waters, Milford, MA, USA), using methanol/water containing 0.1% formic acid as mobile phase. A drug analogue was used as an internal standard.
# [6] = system: GABAA Cl- channel (non- selective); assay: Cerep binding; settings: 10 μM; [35S]TBPS; rat cerebral cortex
# [7] = system: Wistar rats; assay: Pentylenetetrazole (PTZ) test; format: in vivo, rat
# Description: PTZ was prepared in 0.9% saline and was administered s.c. in a volume of 1 mL/kg. The positive control FG7142, a non-selective GABAA receptor NAM, was prepared in 0.3% Tween 80 v/v saline and was administered i.p. in a volume of 1 mL/kg. […] During this period the number of rats showing tonic convulsions was noted.
# FG7142 was administered at 10 mg/kg 30 min prior to PTZ. The percent of rats in each dose group showing tonic convulsions was compared to the control group by the Pearson Chi-Square test.
# [8] = system: Purinergic P2X; assay: Cerep binding; settings: 10 μM; [3H]α,β-MeATP; rat urinary bladder
# [9] = system: T3, Histamine H2; assay: Cerep binding; set-up: species or system human; settings: 10 μM; [125I]APT; hum. recomb. (CHO)
# T3 construct: host or cells: CHO
# [10] = system: cynomolgus macaques; assay: Object retrieval task; format: in vivo, Macaca fascicularis; settings: 2 h prior to testing
# Description: Twelve cynomolgus macaques were presented with a clear acrylic box with one open side baited with a food treat, as described previously[14],[38]. The test is easy when the open side of the box is directed towards the subject and difficult when the open sides face other directions. […] Compound doses were administered in a pseudorandom order. Administration of dose and behavioral measurements were completed blind. Data were analysed using a one-way repeated measures ANOVA followed, in significant cases, by a post hoc Dunnett’s test. Plasma samples were collected from the same three subjects at each dose group at 3 h post administration.
# [11] = system: T4, Muscarinic M4; assay: Cerep binding; set-up: species or system human; settings: 10 μM; [3H]4-DAMP; hum. recomb. (CHO)
# T4 construct: host or cells: CHO
# [12] = system: dogs; assay: GLP toxicology and safety pharmacology, daily oral administration; format: in vivo, dog
# [13] = system: T5, Neurokinin NK1; assay: Cerep binding; set-up: species or system human; settings: 10 μM; [125I]BH-SP; hum., U-373MG cells
# T5 construct: purchased Eurofins Cerep
# [14] = Beagle, dog, 4 mg/kg oral, capsule, n = 3 male, ± standard deviation
# [15] = C57/Bl6, mouse, 4 mg/kg oral, microsuspension, n = 2 male
# [16] = Wistar, rat, 9 mg/kg oral, microsuspension, n = 2 male
compound,measurement,setting,value
Cc1onc(-c2ccc(F)cc2)c1COc1ccc(C(=O)N2CCS(=O)(=O)CC2)cn1 [basmisanil],% Inhibition,[1],14%
same,% Inhibition,[2],14%
same,tolerability,[3]; single doses 1.5 mg to 1250 mg,well tolerated
same,EEG assessments,"[3]; single doses of 160 mg, 660 mg and 1250 mg",did not reveal any findings of clinical
same,% Inhibition,[4],8%
same,bioavailability,"[5]; Beagle, dog, 4 mg/kg oral, capsule, n = 3 male",61%
same,Tmax,"[5]; Beagle, dog, 4 mg/kg oral, capsule, n = 3 male, median",90 min
same,AUC(0-t),[5]; [14],10600 ng·h/mL
same,Cmax,[5]; [14],788 ± 275 ng/mL
same,AUC(0-t),[5]; [15],455 ng·h/mL
same,Cmax,[5]; [15],520 ng/mL
same,bioavailability,[5]; [15],25%
same,Tmax,[5]; [15],18 min
same,AUC(0-t),[5]; [16],1100 ng·h/mL
same,Cmax,[5]; [16],400 ng/mL
same,bioavailability,[5]; [16],41%
same,Tmax,[5]; [16],30 min
same,% Inhibition,[6],-6%
same,proconvulsant activity,"[7]; female rats, 30 mg/kg, 2 h prior to PTZ 70 mg/kg",did not exert proconvulsant activity
same,rats exhibiting tonic convulsions,"[7]; female rats, 100 mg/kg, threshold dose of PTZ, p < 0.05",five out of eight
same,"rats exhibiting tonic convulsions, compared with 100 mg/kg","[7]; female rats, 300 and 600 mg/kg, p < 0.05",identical effects
same,proconvulsant activity,"[7]; male rats, single doses up to 100 mg/kg, 1 h prior to PTZ 55 mg/kg",did not exert proconvulsant activity
same,% Inhibition,[8],-7%
same,% Inhibition,[9],8%
same,percentage of correct first reaches during difficult trials,[10]; 1 and 30 mg/kg p.o.,no marked improvement on performance
same,percentage of correct first reaches during difficult trials,[10]; 3 and 10 mg/kg p.o.,significantly improved
same,% Inhibition,[11],-4%
same,exposures with lack of clinical signs and convulsion symptoms,[12]; GLP toxicology studies in dogs,up to 4590 ng/mL
same,convulsions and EEG alterations,"[12]; daily oral, supra-therapeutic plasma exposures, up to 39 weeks",no convulsions and no EEG alterations
same,% Inhibition,[13],37%
